This note sets out measurements from ChEMBL document CHEMBL5291721, “A preclinical secondary pharmacology resource illuminates target-adverse drug reaction associations of marketed drugs” (Nat Commun, 2023).

A value given as a limit tells only on which side of the number the result lay.

The target of assay [1] is cGMP-inhibited 3',5'-cyclic phosphodiesterase 3A (Homo sapiens, UniProt Q14432). It counts as functional.
In assay [2] the target is Vascular endothelial growth factor receptor 2 (Homo sapiens, UniProt P35968). It counts as functional.
Chain of Vascular endothelial growth factor receptor 2 (P35968 whole entry): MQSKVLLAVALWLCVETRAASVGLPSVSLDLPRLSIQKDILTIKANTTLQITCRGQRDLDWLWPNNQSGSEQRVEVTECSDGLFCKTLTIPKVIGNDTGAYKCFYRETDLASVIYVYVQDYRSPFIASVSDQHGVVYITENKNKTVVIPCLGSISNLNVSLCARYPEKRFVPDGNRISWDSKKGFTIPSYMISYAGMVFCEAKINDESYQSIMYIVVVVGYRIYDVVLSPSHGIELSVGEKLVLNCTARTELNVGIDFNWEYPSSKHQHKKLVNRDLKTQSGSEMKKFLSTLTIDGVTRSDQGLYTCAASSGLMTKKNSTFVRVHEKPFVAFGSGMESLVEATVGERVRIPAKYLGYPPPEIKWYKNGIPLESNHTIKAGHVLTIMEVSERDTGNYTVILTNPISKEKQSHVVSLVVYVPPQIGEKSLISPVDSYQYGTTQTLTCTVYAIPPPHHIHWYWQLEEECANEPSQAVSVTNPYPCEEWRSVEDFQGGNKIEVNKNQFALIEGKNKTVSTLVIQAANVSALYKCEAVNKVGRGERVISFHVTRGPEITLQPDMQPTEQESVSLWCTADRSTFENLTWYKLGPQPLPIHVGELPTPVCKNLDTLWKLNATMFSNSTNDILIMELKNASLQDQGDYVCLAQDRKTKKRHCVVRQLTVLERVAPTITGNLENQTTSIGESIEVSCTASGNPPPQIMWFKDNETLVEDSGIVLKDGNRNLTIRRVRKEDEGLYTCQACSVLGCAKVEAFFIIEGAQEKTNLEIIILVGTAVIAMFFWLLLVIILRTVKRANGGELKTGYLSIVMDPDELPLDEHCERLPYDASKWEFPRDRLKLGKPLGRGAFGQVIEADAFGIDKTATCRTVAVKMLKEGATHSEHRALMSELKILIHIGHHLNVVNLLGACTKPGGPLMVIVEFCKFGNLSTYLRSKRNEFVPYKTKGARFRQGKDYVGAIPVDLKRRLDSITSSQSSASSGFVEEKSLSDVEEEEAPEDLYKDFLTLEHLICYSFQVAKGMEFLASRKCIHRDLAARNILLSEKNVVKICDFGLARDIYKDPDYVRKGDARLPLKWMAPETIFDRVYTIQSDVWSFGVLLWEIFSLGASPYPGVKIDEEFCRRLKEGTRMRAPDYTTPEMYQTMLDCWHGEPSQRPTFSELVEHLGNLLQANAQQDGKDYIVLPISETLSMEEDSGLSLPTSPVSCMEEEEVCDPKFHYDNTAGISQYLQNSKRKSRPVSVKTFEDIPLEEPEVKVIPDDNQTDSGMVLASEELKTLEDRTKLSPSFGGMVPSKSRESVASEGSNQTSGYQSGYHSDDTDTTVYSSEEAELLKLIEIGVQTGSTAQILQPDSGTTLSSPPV
The target in assay [3] is Sodium-dependent dopamine transporter (Homo sapiens, UniProt Q01959).
Chain of Sodium-dependent dopamine transporter (Q01959 whole entry): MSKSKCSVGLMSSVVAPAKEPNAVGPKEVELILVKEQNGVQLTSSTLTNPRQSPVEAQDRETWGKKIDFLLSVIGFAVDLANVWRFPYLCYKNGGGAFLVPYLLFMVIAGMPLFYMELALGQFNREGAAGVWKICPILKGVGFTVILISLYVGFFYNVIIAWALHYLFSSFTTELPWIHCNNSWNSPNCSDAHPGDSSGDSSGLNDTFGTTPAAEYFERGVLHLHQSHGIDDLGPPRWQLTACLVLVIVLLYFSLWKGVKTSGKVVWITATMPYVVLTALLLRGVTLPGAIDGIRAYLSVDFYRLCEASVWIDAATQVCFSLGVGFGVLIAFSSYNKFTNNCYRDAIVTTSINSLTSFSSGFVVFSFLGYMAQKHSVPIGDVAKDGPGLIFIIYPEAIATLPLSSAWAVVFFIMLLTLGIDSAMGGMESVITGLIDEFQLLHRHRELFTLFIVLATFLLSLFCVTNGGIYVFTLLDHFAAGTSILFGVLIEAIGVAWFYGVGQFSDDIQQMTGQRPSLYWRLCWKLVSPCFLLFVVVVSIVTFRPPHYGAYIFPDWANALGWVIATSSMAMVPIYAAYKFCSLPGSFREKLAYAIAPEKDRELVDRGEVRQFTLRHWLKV
Assay [4] has as its target T1, Progesterone receptor (Homo sapiens, UniProt P06401).
T1 sequence (P06401 whole entry): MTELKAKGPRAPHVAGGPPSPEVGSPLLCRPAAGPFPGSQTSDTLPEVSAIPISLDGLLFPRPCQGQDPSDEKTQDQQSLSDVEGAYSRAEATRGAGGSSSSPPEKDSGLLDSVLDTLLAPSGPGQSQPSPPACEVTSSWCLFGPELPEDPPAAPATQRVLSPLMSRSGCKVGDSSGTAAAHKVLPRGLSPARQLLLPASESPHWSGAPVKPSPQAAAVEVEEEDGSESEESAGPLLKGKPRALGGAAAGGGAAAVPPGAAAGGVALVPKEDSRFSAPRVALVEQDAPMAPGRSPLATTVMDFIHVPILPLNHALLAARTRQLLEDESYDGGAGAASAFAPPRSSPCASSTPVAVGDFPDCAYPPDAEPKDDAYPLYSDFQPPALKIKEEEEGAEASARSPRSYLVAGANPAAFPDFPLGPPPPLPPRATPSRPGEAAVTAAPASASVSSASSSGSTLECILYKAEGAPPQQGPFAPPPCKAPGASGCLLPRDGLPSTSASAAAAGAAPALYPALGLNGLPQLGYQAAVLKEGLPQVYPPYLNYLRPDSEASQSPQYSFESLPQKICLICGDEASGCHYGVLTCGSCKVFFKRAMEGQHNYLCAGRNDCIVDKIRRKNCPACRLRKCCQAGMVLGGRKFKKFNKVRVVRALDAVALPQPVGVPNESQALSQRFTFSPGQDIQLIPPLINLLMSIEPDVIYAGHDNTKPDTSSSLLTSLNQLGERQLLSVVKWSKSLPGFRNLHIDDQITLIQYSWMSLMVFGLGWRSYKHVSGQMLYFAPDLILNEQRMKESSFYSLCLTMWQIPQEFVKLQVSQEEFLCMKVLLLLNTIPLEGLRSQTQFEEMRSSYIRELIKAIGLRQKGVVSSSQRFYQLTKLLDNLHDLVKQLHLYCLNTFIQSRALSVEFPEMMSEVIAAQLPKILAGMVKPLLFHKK

Assay [5] deals with 5-hydroxytryptamine receptor 2B (Homo sapiens, UniProt P41595). The assay is classed as functional, cell-based.
Chain of 5-hydroxytryptamine receptor 2B (P41595 whole entry): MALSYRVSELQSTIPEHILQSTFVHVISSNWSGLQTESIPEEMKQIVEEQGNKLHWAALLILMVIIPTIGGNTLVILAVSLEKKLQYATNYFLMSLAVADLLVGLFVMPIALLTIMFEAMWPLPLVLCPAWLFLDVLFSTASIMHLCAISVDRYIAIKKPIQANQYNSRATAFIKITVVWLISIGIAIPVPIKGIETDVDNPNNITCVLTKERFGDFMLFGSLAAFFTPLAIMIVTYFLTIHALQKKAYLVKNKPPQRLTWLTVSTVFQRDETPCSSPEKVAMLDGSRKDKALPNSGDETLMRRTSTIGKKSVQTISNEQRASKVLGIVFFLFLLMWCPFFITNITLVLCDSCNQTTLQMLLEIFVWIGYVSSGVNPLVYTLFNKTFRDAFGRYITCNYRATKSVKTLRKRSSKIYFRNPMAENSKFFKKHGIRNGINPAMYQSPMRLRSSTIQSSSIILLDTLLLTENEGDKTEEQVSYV
The target of assay [6] is Acetylcholinesterase (Homo sapiens, UniProt P22303). The assay is classed as functional.
Assay [7] concerns the target T2, Prostaglandin G/H synthase 1 (Homo sapiens, UniProt P23219). It counts as functional.
In assay [8] the target is D(1A) dopamine receptor (Homo sapiens, UniProt P21728).
For assay [9], the target named is Sodium-dependent noradrenaline transporter (Homo sapiens, UniProt P23975).
Chain of Sodium-dependent noradrenaline transporter (P23975 whole entry): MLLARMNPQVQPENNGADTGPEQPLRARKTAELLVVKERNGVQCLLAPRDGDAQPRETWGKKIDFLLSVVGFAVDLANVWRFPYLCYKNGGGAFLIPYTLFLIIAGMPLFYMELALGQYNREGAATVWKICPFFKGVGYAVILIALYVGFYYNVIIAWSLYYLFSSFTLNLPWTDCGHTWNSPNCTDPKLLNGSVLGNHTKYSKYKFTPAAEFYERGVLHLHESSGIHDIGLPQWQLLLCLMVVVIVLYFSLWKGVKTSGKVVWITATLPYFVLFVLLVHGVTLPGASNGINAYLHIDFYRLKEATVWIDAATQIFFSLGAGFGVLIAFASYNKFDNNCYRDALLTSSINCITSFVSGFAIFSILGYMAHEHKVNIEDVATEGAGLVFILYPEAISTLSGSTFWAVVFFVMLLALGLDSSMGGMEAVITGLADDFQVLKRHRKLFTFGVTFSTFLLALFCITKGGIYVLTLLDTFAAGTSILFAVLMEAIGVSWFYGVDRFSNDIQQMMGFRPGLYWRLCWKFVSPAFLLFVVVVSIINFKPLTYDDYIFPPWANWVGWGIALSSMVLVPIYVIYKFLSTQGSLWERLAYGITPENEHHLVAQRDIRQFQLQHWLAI
The target of assay [10] is T3, 5-hydroxytryptamine receptor 1A (Homo sapiens, UniProt P08908).
T3 sequence (P08908 whole entry): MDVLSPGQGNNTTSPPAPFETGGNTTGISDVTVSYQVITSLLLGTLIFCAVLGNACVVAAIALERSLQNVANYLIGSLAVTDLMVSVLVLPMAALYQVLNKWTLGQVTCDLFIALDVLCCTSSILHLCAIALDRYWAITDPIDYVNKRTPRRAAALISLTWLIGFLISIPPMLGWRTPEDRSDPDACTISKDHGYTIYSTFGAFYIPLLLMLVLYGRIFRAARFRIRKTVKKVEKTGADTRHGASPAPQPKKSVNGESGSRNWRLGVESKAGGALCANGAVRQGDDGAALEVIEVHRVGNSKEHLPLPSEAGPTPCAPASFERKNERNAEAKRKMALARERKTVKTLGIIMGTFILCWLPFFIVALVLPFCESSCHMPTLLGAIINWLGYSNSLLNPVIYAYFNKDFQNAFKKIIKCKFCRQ

Assay [11] addresses T2, Prostaglandin G/H synthase 1. It counts as functional. This is another data set of the same source.
The target of assay [12] is T4, Amine oxidase [flavin-containing] A (Homo sapiens, UniProt P21397).
T4 sequence (P21397 whole entry): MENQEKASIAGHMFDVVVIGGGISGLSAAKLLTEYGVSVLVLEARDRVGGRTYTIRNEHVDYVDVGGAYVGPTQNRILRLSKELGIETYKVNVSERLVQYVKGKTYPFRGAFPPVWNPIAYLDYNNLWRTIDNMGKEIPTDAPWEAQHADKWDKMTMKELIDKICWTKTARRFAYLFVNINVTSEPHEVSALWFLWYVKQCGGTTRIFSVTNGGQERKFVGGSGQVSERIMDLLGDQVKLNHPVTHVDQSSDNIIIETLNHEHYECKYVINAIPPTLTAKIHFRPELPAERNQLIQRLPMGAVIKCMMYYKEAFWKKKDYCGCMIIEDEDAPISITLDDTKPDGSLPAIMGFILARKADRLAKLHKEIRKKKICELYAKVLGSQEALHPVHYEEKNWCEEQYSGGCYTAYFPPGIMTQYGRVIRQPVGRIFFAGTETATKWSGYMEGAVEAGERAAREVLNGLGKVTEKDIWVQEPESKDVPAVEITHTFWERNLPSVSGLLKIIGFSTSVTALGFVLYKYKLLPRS
The assay is classed as functional.

In assay [13] the target is Prothrombin (Homo sapiens, UniProt P00734). It counts as functional.
Assay [14] addresses T5, Thromboxane A2 receptor (Homo sapiens, UniProt P21731).
T5 sequence (P21731 whole entry): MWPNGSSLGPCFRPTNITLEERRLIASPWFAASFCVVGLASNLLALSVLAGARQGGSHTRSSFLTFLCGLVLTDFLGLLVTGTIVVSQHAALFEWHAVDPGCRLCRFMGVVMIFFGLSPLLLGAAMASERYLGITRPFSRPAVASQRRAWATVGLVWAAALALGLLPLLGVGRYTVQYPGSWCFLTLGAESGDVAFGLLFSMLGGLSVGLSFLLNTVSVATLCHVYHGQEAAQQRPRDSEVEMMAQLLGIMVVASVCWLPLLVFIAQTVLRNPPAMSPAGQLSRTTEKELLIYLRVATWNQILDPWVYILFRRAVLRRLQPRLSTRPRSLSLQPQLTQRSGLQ
The assay is classed as functional, cell-based.

For assay [15], the target named is T5, Thromboxane A2 receptor. It counts as functional, cell-based. This is another data set of the same source.
Note: assay procedure not described here.

Chain of cGMP-inhibited 3',5'-cyclic phosphodiesterase 3A (Q14432 whole entry): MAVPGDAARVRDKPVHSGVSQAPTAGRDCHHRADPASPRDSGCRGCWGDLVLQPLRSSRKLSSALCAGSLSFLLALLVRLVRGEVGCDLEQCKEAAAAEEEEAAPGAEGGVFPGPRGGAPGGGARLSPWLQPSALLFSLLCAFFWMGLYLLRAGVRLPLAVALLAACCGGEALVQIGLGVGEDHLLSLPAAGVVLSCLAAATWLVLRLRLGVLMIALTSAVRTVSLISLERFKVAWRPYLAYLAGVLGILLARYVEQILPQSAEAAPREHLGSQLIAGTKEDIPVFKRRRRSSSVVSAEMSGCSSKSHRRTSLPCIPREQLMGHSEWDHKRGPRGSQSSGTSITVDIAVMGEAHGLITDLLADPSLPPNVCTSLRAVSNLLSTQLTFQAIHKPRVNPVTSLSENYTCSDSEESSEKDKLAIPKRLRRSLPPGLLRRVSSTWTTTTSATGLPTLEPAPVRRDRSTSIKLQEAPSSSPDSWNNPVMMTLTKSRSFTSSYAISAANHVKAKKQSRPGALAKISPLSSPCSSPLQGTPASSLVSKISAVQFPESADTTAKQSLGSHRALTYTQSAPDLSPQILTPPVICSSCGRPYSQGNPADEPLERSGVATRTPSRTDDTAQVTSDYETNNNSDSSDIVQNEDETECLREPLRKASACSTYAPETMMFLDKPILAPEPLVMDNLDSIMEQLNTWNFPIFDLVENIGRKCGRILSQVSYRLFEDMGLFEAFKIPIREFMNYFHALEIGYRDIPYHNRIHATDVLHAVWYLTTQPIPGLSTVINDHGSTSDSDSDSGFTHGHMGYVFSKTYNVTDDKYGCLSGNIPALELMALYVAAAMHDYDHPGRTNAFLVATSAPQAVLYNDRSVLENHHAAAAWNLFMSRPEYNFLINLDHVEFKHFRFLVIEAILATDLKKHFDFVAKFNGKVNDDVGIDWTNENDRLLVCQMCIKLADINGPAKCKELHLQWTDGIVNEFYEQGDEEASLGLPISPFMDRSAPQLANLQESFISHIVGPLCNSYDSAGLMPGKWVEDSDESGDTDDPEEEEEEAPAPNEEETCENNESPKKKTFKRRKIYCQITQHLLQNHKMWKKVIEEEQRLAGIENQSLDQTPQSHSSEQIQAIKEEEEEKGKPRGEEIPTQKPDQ
T2 sequence (P23219 whole entry): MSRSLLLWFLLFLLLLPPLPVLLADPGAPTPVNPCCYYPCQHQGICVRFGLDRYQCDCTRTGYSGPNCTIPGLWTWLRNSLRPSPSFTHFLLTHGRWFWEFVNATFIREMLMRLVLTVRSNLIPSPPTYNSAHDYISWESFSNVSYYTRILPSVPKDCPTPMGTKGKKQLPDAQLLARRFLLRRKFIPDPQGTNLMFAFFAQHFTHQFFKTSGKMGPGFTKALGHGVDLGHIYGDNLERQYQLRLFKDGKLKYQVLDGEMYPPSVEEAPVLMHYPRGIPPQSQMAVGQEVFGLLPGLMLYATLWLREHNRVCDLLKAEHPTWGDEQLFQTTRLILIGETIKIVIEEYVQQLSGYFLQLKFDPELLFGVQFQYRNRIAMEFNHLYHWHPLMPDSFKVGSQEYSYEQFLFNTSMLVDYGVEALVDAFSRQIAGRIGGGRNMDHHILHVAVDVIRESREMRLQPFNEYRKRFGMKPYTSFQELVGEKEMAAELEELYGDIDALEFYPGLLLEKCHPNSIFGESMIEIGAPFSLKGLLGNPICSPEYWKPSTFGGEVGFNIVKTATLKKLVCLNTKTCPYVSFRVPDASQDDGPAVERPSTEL

In general, AC50 refers to the concentration at which the activity in the assay is half-maximal. A low value points to greater potency. For `CC(NCCC(c1ccccc1)c1ccccc1)c1ccccc1` (centres undefined) [FENDILINE], the AC50 was greater than 30 µM in assay [1]; greater than 30 µM in assay [2]; 3.48 µM in assay [3]; greater than 30 µM in [4]; greater than 30 µM in assay [5]; greater than 30 µM in assay [6]. The AC50 in assay [7] was greater than 30 µM; in assay [8] it was 21.7 µM; in assay [9], 3.26 µM; in assay [10], 14.9 µM; in [11], greater than 30 µM; in [12], greater than 30 µM. The AC50 was greater than 3 µM in assay [13] and 20.7 µM in assay [14].

Take `CN1CCCC(CC2c3ccccc3Sc3ccccc32)C1` (centres undefined) [METHIXENE]: the AC50 in assay [1], in [2], in [3], in assay [4], in assay [5] and in assay [6] was greater than 30 µM in each case. Besides, the concentration at half-maximal activity (AC50) in assay [7] was greater than 30 µM; in assay [8], 2.03 µM; in [9], 3.29 µM; in assay [10], 1.9 µM; in assay [11], greater than 30 µM; in assay [12] it was greater than 30 µM. Besides, the AC50 in assay [13] is greater than 30 µM; in [14], 25 µM.

Consider `OC(CN1CCCCC1)c1cc(-c2ccccc2)on1` (centres undefined) [PERISOXAL], for which the AC50 in [1], in assay [3], in assay [4], in assay [5], in assay [6] and in assay [7] was greater than 30 µM each time. For the same molecule, the AC50 in [8] was 3.82 µM; in [9] it was 21.9 µM; in assay [10], greater than 30 µM; in assay [11], greater than 30 µM; in assay [15] it was greater than 30 µM; in [12], greater than 30 µM. Further, the AC50 in assay [13] and in [14] was greater than 30 µM each time.

As to `CNC(=O)c1cnn(-c2nc(N)c3ncn([C@@H]4O[C@H](CO)[C@@H](O)[C@H]4O)c3n2)c1` [REGADENOSON ANHYDROUS], the AC50 in assay [1], in assay [3], in assay [4], in [5], in assay [6] and in assay [7] was greater than 30 µM each time. Moreover, the AC50 in assay [8], in [9], in assay [10], in [11], in assay [15] and in [12] was greater than 30 µM in each case. In addition, the concentration at half-maximal activity (AC50) in assay [13] and in [14] was greater than 30 µM in each case.

As to `CC1(C)CCC(C)(C)c2cc(NC(=O)c3ccc(C(=O)O)cc3)ccc21` [TAMIBAROTENE], the AC50 in assay [1] was greater than 30 µM; in assay [3], greater than 30 µM; in assay [4], 29.2 µM; in assay [5] it was greater than 30 µM; in [6], greater than 30 µM; in assay [7], greater than 30 µM. Further, the AC50 in assay [8] is greater than 30 µM; in assay [9], greater than 30 µM; in [10], greater than 30 µM; in assay [11], greater than 30 µM; in assay [15], 9.94 µM; in assay [12] it was greater than 30 µM. For the same molecule, the results for the AC50 in assay [13] and in assay [14] were greater than 30 µM and 28.7 µM, respectively.

Take `CC(C)N1CCN(c2ccc(OCC3COC(Cn4cncn4)(c4ccc(Cl)cc4Cl)O3)cc2)CC1` (centres undefined) [TERCONAZOLE]: the AC50 in assay [1] is greater than 30 µM; in [2] it was greater than 30 µM; in [3], 7.14 µM; in [4], 18.7 µM; in assay [5], greater than 30 µM; in assay [6], 16.5 µM. Moreover, the AC50 in assay [7] was greater than 30 µM; in assay [8] it was 25.2 µM; in assay [9], greater than 30 µM; in assay [10] it was greater than 30 µM; in assay [11] it was greater than 30 µM; in assay [12], greater than 30 µM. Moreover, the half-maximal activity concentration (AC50) in assay [13] was greater than 30 µM; in assay [14], 20 µM.

With `COc1cc(C[C@@H]2NCCc3cc(O)c(O)cc32)cc(OC)c1OC` [TRETOQUINOL], the AC50 in assay [1], in assay [2], in [3], in assay [4], in assay [5] and in assay [6] was greater than 30 µM in each case. In addition, the AC50 in [7] was greater than 30 µM; in assay [8] it was 4.72 µM; in [9], greater than 30 µM; in [10] it was 7.31 µM; in assay [11] it was 5.31 µM; in [12], greater than 30 µM. In assay [13], this molecule gave a half-maximal activity concentration (AC50) greater than 30 µM.

For the molecule `CC(CN(C)C)CN1c2ccccc2CCc2ccccc21` (centres undefined) [TRIMIPRAMINE], the AC50 in [1] was greater than 30 µM; in assay [2] it was greater than 30 µM; in assay [3], 10.9 µM; in [4], greater than 30 µM; in [5] it was greater than 30 µM; in assay [6], greater than 30 µM. For the same molecule, the AC50 in assay [7] was greater than 30 µM; in assay [9], 18.5 µM; in assay [10] it was 20.1 µM; in [11] it was greater than 30 µM; in [12] it was greater than 30 µM; in assay [13] it was greater than 30 µM. In assay [14], this molecule gave a half-maximal activity concentration (AC50) of 9.64 µM.

As to `CC(=O)O[C@]1(C(C)=O)CC[C@H]2[C@@H]3CCC4=CC(=O)CCC4=C3[C@@H](c3ccc(N(C)C)cc3)C[C@@]21C` [ULIPRISTAL ACETATE], the AC50 in [1] is greater than 30 µM; in assay [3], greater than 30 µM; in assay [4], 0.003 µM; in [5] it was greater than 30 µM; in assay [6] it was greater than 30 µM; in [7], greater than 30 µM. Also, the AC50 in [8], in assay [9], in assay [10], in assay [11], in assay [15] and in assay [12] was greater than 30 µM in each case. The AC50 in [13] and in [14] was greater than 30 µM each time.
